Data as given in PMC11243320, “Tailoring Fibroblast-Activation Protein Targeting for Theranostics: A Comparative Preclinical Evaluation of the ^68Ga- and ^177Lu-Labeled Monomeric and Dimeric Fibroblast-Activation Protein Inhibitors DOTA.SA.FAPi and DOTAGA.(SA.FAPi)2” (Molecules, 2024).

System: U87MG tumor-bearing mice
Test: Ex vivo biodistribution of 68Ga-labeled radiotracers in U87MG xenografts
Procedure: U87MG and PC3 tumor-bearing mice: Female athymic BALB/c (6 weeks/16–20 g) and male athymic BALB/c nude mice (6 weeks/20–25 g) were implanted with U87MG or PC3 cells (5 × 10^6/100 µL PBS) into their right shoulder, respectively. The animals were used for biodistribution and PET/SPECT/CT imaging studies (Animal License No: BE98/2021).
Ten pmol (0.08–0.1 MBq) of the radiotracers in 100 µL of NaCl 0.9% were injected intravenously into the tail vein of U87MG and PC3 tumor-bearing mice and biodistribution studies were conducted at 1, 2, and 3 h after injection.
Saturation Binding Studies […]
The radioactivity of the culture medium, the receptor bound , the internalized and the externalized fractions were measured in a γ -counter. The externalized fraction of radioactivity was ex-pressed as the percentage of the total internalized amount.
[68Ga]Ga -DOTA.SA.FAPi and [ 68Ga]Ga -DOTAGA.(SA.FAPi) 2
Ten pmol ( 0.08 –0.1 MBq) of [68Ga]Ga -monomer and [ 68Ga]Ga -dimer in 100 µ L of NaCl 0.9% were injected intravenously into the tail vein of U87MG or PC3 tumor bearing mice . The PC3 tumor-bearing mice were used between the 15th and 17th day after the xenograft implantation and the size was 281 ± 75 mm3. The U87MG tumor-bearing mice were used between the 7th and 9th day after the implantation and the size was 210 ± 34 mm3. Animals were terminally anesthetized by intraperitoneal injection of an overdose of pento-barbital natrium (150 mg/kg; Streuli Pharma SA, Uznach, Switzerland) at 1, 2 and 3 h after injection of the radiotracers. The organs of interest were dissected and weighed, and the radioactivity in the tissue samples […]
was counted in a γ-counter. Biodistribution data are given as the percent of injected activity per gram of tissue (% IA/g) and as means ± SD (n = 4). […]
each radiotracer along with 20 nmol of UAMC1110 (total injected volume: 100 µL) and biodistribution stud-ies were performed 2 h after injection.
[177Lu]Lu-DOTA.SA.FAPi and [177Lu]Lu-DOTAGA.(SA.FAPi)2
Ten pmol (0.06-0.08 MBq) of [177Lu]Lu-monomer and [177Lu]Lu-dimer in 100 µL of NaCl 0.9% were injected intravenously into the tail vein of PC3 tumor-bearing mice. The PC3 tumor-bearing mice were used between the 15th and 17th day after the xenograft implantation and its size was 281 ± 75 mm3. Animals were terminally anesthetized by intraperitoneal injection of an overdose of pentobarbital natrium (150 mg/kg; Streuli Pharma SA, Uznach, Switzerland) 1, 4, 24 and 48 h after the injection of [177Lu]Lu-DOTA.SA.FAPi and at 4, 24, 48, 72 and 96 h after the injection of [177Lu]Lu-DOTAGA.(SA.FAPi)2. The organs of interest were dissected and weighed, and the radioactivity in the tissue samples was counted in a γ-counter. The biodistribution data are given as the percent of injected activity per gram of tissue (% IA/g) and as means ± SD (n = 4). […]
blood pools or if they were necrotic. Both tumor types were “clean” without extended vascularization; there […]
Small Animal Imaging Studies
PET images were obtained after injection of 200 pmol of [68Ga]Ga-DOTA.SA.FAPi and [68Ga]Ga-DOT-AGA.(SA.FAPi)2 (1.0–1.6 MBq/100 μL) into U87MG or PC3 xenografts at 1, 2 and 3 h after injection. Static imaging was acquired for a time period between 10 and 45 min at 1, 2 and 3 h post injection, respectively.
To visualize the extent of FAP-specific tumor uptake, PET/CT blocking studies were performed as described above, and static scans were obtained for 30 min 2 h after the injection of the radiotracer along with the blocking agent (20 nmol).
PET images were corrected for gallium-68 decay and reconstructed with 12 iterations of the maximum a posteriori (MAP) algorithm using a voxel size of 0.25 mm. No correction was applied for attenuation. In addition, a point spread function iterative deconvolution was applied. The images were normalized, filtered using a Gaussian 3D algorithm with a 1.3 mm isotropic kernel and generated using PMOD software. The CT was carried out using step and shoot mode and employed 45 kVp and 400 uA as settings. The images […]

[1] = 2 h blocking (20 nmol UAMC1110)

Biodistribution Blood (1 h): 13.4 ± 0.2 % IA/g
Biodistribution Bone (1 h): 2.1 ± 0.2 % IA/g
Biodistribution Heart (1 h): 4.9 ± 0.6 % IA/g
Biodistribution Intestine (1 h): 2.9 ± 0.5 % IA/g
Biodistribution Kidney (1 h): 3.5 ± 0.7 % IA/g
Biodistribution Liver (1 h): 3.2 ± 0.4 % IA/g
Biodistribution Lung (1 h): 3.2 ± 1.7 % IA/g
Biodistribution Muscle (1 h): 2.6 ± 1.4 % IA/g
Biodistribution Pancreas (1 h): 9.7 ± 2.7 % IA/g
Biodistribution Spleen (1 h): 2.3 ± 0.4 % IA/g
Biodistribution Stomach (1 h): 2.1 ± 0.6 % IA/g
Biodistribution U87MG-Tumor (1 h): 6.5 ± 0.7 % IA/g
Tumor/Blood ratio (1 h): 0.5 ± 0.03
Tumor/Liver ratio (1 h): 2.0 ± 0.3
Tumor/Muscle ratio (1 h): 2.3 ± 0.7
Tumor/Pancreas ratio (1 h): 0.7 ± 0.2
Biodistribution Blood (2 h): 8.5 ± 1.5 % IA/g
Biodistribution Bone (2 h): 1.3 ± 0.2 % IA/g
Biodistribution Heart (2 h): 3.1 ± 0.9 % IA/g
Biodistribution Intestine (2 h): 3.2 ± 0.7 % IA/g
Biodistribution Kidney (2 h): 2.7 ± 0.6 % IA/g
Biodistribution Liver (2 h): 3.1 ± 0.9 % IA/g
Biodistribution Lung (2 h): 2.2 ± 1.0 % IA/g
Biodistribution Muscle (2 h): 2.8 ± 1.1 % IA/g
Biodistribution Pancreas (2 h): 10.5 ± 2.8 % IA/g
Biodistribution Spleen (2 h): 1.6 ± 0.5 % IA/g
Biodistribution Stomach (2 h): 2.0 ± 0.5 % IA/g
Biodistribution U87MG-Tumor (2 h): 5.2 ± 1.4 % IA/g
Tumor/Blood ratio (2 h): 0.7 ± 0.3
Tumor/Liver ratio (2 h): 1.7 ± 0.5
Tumor/Muscle ratio (2 h): 1.9 ± 1.5
Tumor/Pancreas ratio (2 h): 0.5 ± 0.2
Biodistribution Blood [1]: 0.5 ± 0.1 % IA/g
Biodistribution Bone [1]: 1.7 ± 0.6 % IA/g
Biodistribution Heart [1]: 0.7 ± 0.3 % IA/g
Biodistribution Intestine [1]: 1.3 ± 0.1 % IA/g
Biodistribution Kidney [1]: 2.5 ± 0.8 % IA/g
Biodistribution Liver [1]: 0.3 ± 0.03 % IA/g
Biodistribution Lung [1]: 1.1 ± 0.2 % IA/g
Biodistribution Muscle [1]: 1.4 ± 0.8 % IA/g
Biodistribution Pancreas [1]: 0.6 ± 0.4 % IA/g
Biodistribution Spleen [1]: 0.7 ± 0.3 % IA/g
Biodistribution Stomach [1]: 0.7 ± 0.4 % IA/g
Biodistribution U87MG-Tumor [1]: 1.1 ± 0.8 % IA/g
Biodistribution Blood (3 h): 6.2 ± 0.5 % IA/g
Biodistribution Bone (3 h): 3.0 ± 1.6 % IA/g
Biodistribution Heart (3 h): 3.7 ± 0.7 % IA/g
Biodistribution Intestine (3 h): 3.5 ± 0.7 % IA/g
Biodistribution Kidney (3 h): 3.4 ± 0.3 % IA/g
Biodistribution Liver (3 h): 3.9 ± 0.3 % IA/g
Biodistribution Lung (3 h): 3.1 ± 1.0 % IA/g
Biodistribution Muscle (3 h): 3.1 ± 0.9 % IA/g
Biodistribution Pancreas (3 h): 8.7 ± 1.3 % IA/g
Biodistribution Spleen (3 h): 2.8 ± 1.0 % IA/g
Biodistribution Stomach (3 h): 2.2 ± 0.5 % IA/g
Biodistribution U87MG-Tumor (3 h): 4.9 ± 1.0 % IA/g
Tumor/Blood ratio (3 h): 0.8 ± 0.3
Tumor/Liver ratio (3 h): 1.3 ± 0.5
Tumor/Muscle ratio (3 h): 1.7 ± 1.2
Tumor/Pancreas ratio (3 h): 0.6 ± 0.3
SMILES: N#C[C@@H]1CC(F)(F)CN1C(=O)CNC(=O)c1ccnc2ccc(OCCCCNc3c(NCCNC(=O)CN4CCN(CC(=O)[O-])CCN(CC(=O)[O-])CCN(CC(=O)[O-])CC4)c(=O)c3=O)cc12.[68Ga+3] [[^68Ga]Ga-DOTA.SA.FAPi]
